From ChEMBL document CHEMBL1201862, “PubChem BioAssay data set” (2004)
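Exposure lasted 48 hours, with cells grown in 96-well plates and compounds tested at five concentrations. GI50: concentration for 50% inhibition of growth.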 Active and inactive are the calls of the source. Rule as the data show it: active = GI50 up to about 1.1 µM and inactive = higher.

What was measured:
Assay in all cases: NCI tumour cell line growth inhibition, 48 h
[1] = system: 786-0
[2] = system: A498
[3] = system: A549
[4] = system: ACHN
[5] = system: BT-549
[6] = system: CAKI-1
[7] = system: CCRF-CEM
[8] = system: COLO 205
[9] = system: DU-145
[10] = system: EKVX
[11] = system: HCC 2998
[12] = system: HCT-116
[13] = system: HCT-15
[14] = system: HL-60
[15] = system: HOP-62
[16] = system: HOP-92
[17] = system: HT-29
[18] = system: Hs-578T
[19] = system: IGROV-1
[20] = system: K562
[21] = system: KM12
[22] = system: LOX IMVI
[23] = system: M14
[24] = system: MCF7
[25] = system: MDA-MB-231
[26] = system: MDA-MB-435
[27] = system: MDA-N
[28] = system: MOLT-4
[29] = system: Malme-3M
[30] = system: NCI-H226
[31] = system: NCI-H23
[32] = system: NCI-H460
[33] = system: NCI-H522
[34] = system: NCI/ADR-RES
[35] = system: OVCAR-3
[36] = system: OVCAR-4
[37] = system: OVCAR-5
[38] = system: OVCAR-8
[39] = system: PC-3
[40] = system: RXF 393
[41] = system: SF-268
[42] = system: SF-295
[43] = system: SF-539
[44] = system: SK-MEL-28
[45] = system: SK-MEL-2
[46] = system: SK-MEL-5
[47] = system: SK-OV-3
[48] = system: SN12C
[49] = system: SNB-19
[50] = system: SNB-75
[51] = system: SR
[52] = system: SW-620
[53] = system: T47D
[54] = system: TK-10
[55] = system: U-251
[56] = system: UACC-257
[57] = system: UACC-62
[58] = system: UO-31

O=C1C=C/C(=C/[C@H]2SSC=C[C@]23C=CC(=O)C3)C1
GI50 [1]: 7.55 µM (inactive) | GI50 [2]: 17.6 µM (inactive) | GI50 [3]: 22.8 µM (inactive) | GI50 [4]: 18.1 µM (inactive) | GI50 [5]: 18.9 µM (inactive) | GI50 [6]: 9.91 µM (inactive) | GI50 [7]: 2.54 µM (inactive) | GI50 [8]: 13 µM (inactive) | GI50 [9]: 20.2 µM (inactive) | GI50 [10]: 17.5 µM (inactive) | GI50 [11]: 20.6 µM (inactive) | GI50 [12]: 7.36 µM (inactive) | GI50 [13]: 14.9 µM | GI50 [14]: 2.38 µM (inactive) | GI50 [15]: 27.9 µM (inactive) | GI50 [16]: 20.6 µM (inactive) | GI50 [17]: 11 µM (inactive) | GI50 [18]: 10.8 µM (inactive) | GI50 [19]: 17.8 µM (inactive) | GI50 [20]: 5.3 µM (inactive) | GI50 [21]: 21.3 µM (inactive) | GI50 [22]: 10.3 µM (inactive) | GI50 [23]: 17.2 µM (inactive) | GI50 [24]: 5.79 µM (inactive) | GI50 [25]: 28.1 µM (inactive) | GI50 [26]: 17.7 µM (inactive) | GI50 [27]: 17.5 µM (inactive) | GI50 [28]: 1.36 µM (inactive) | GI50 [29]: 16.9 µM (inactive) | GI50 [30]: 6.41 µM (inactive) | GI50 [31]: 19.2 µM (inactive) | GI50 [32]: 29.3 µM (inactive) | GI50 [33]: 11 µM (inactive) | GI50 [34]: 23.8 µM (inactive) | GI50 [35]: 26.7 µM (inactive) | GI50 [36]: 30 µM (inactive) | GI50 [37]: 13 µM (inactive) | GI50 [38]: 25.9 µM (inactive) | GI50 [39]: 24.7 µM (inactive) | GI50 [40]: 13.3 µM (inactive) | GI50 [41]: 26.5 µM (inactive) | GI50 [42]: 30.7 µM (inactive) | GI50 [43]: 12.2 µM (inactive) | GI50 [44]: 18.9 µM (inactive) | GI50 [45]: 20 µM (inactive) | GI50 [46]: 16.9 µM (inactive) | GI50 [47]: 49.7 µM (inactive) | GI50 [48]: 19.3 µM (inactive) | GI50 [49]: 36.1 µM (inactive) | GI50 [50]: 33.7 µM (inactive) | GI50 [51]: 1.75 µM (inactive) | GI50 [52]: 11.9 µM (inactive) | GI50 [53]: 36.1 µM (inactive) | GI50 [54]: 24.7 µM (inactive) | GI50 [55]: 28.5 µM (inactive) | GI50 [56]: 28.1 µM (inactive) | GI50 [57]: 18 µM (inactive) | GI50 [58]: 14.8 µM (inactive)
